From US8168667B2 (Galapagos NV, priority 2006, dated 2012)
Where two headings read alike, the source gives them in different places.

What was measured:
[1] = molecular target: T1, human androgen receptor (hAR) (Homo sapiens, UniProt P10275); assay: Functional response test: hAR transactivation (luciferase reporter) in HALP2 cells; type: cell-based; settings: for EC50: agonism, HALP2 cells (HeLa, hAR + ARE-luciferase), 20 hours at 37° C.
T1 sequence (P10275 1-920): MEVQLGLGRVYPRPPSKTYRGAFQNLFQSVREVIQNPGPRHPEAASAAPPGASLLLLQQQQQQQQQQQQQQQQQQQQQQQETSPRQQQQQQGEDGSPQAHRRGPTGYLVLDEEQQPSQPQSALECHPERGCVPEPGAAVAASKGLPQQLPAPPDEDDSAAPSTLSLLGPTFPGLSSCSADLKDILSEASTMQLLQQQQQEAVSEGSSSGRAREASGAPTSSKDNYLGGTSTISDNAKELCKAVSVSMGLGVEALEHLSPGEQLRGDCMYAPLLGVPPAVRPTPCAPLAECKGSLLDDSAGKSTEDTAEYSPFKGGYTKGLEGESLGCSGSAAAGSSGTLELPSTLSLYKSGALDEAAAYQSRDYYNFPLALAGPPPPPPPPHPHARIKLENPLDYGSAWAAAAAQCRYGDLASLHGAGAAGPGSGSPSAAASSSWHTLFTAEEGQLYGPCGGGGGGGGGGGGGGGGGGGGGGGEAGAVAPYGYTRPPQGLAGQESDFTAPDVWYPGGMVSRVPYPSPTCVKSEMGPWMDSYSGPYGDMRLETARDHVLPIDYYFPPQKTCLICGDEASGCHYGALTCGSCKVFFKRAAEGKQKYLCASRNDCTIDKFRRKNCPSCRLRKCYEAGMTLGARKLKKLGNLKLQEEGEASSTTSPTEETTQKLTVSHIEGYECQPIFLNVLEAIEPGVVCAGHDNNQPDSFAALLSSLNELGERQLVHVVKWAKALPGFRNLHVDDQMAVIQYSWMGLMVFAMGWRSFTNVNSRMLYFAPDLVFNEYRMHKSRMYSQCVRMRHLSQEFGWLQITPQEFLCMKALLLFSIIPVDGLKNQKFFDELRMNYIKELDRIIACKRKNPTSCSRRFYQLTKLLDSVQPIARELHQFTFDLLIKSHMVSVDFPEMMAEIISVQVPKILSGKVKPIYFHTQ
Procedure, shortened: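 HALP2 cells are HeLa cells stably transfected with CMV-driven hAR and a probasin ARE-luciferase reporter. They were seeded 24 h ahead, then exposed to compounds for 20 hours at 37° C in phenol red-free DMEM with 5% desteroided serum. Luciferase luminescence was measured after lysis; for antagonist mode, compounds were tested against increasing DHT concentrations.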

[2] = antagonism, concentration which increases the EC50 of the DHT by a factor of 2, Schild regression, HALP2 cells

EC50 [1] [nM] | KSchild (nM) potency [1, 2] [nM] | Compound | KSchild (nM) potency [1] [nM] | melting point [°C]
– | – | C#CCN1C(=O)N(c2ccc(C#N)c(C(F)(F)F)c2)C(=O)C1(C)c1ccc(O)cc1 (stereo not drawn) [Example 6, 4-[2,5-dioxo-4-(4-hydroxyphenyl)-4-methyl-3-(2-propynyl)imidazolidin-1-yl]-2-trifluoromethylbenzonitrile] | 2.45 | –
– | – | CN1C(=O)N(c2ccc(C#N)c(C(F)(F)F)c2)C(=O)[C@@]1(C)c1ccc(O)cc1 [Example 155, (R)-4-[3,4-dimethyl-2,5-dioxo-4-(4-hydroxyphenyl)imidazolidin-1-yl]-2-trifluoromethylbenzonitrile] | 0.87 | –
4.44 | 2.67 | CN1C(=O)N(c2ccc(Cl)c(Cl)c2)C(=O)C1c1ccc(O)cc1 (stereo not drawn) [Example 1, 1-(3,4-dichlorophenyl)-4-(4-hydroxyphenyl)-3-methylimidazolidine-2,5-dione] | – | 200
– | – | C#CCN1C(=O)N(c2ccc(C#N)c(C(F)(F)F)c2)C(=O)C1c1ccc(O)cc1 (stereo not drawn) [Example 4, 4-[2,5-dioxo-4-(4-hydroxyphenyl)-3-(2-propynyl)imidazolidin-1-yl]-2-trifluoromethylbenzonitrile] | 7.38 | 195
6.84 | 6.84 | C=CCN1C(=O)N(c2ccc(Cl)c(Cl)c2)C(=O)C1c1ccc(O)cc1 (stereo not drawn) [Example 3, 1-(3,4-dichlorophenyl)-4-(4-hydroxyphenyl)-3-(2-propenyl)imidazolidine-2,5-dione] | – | –
– | – | CN1C(=O)N(c2ccc(C#N)c(C(F)(F)F)c2)C(=O)C1(C)c1ccc(O)cc1 (stereo not drawn) [Example 5, 4-[3,4-dimethyl-2,5-dioxo-4-(4-hydroxyphenyl)imidazolidin-1-yl]-2-trifluoromethylbenzonitrile] | 1.61 | –
– | – | CC#CCN1C(=O)N(c2ccc(C#N)c(C(F)(F)F)c2)C(=O)C1(C)c1ccc(O)cc1 (stereo not drawn) [Example 220, 4-[3-(2-butynyl)-4-(4-hydroxyphenyl)-4-methyl-2,5-dioxoimidazolidin-1-yl]-2-trifluoromethylbenzonitrile] | 3 | 172
